“And” between values parts separate entries of the source, which are not always exact repeats. Equal values may be shown once. Read-outs that look alike come from different tables or passages of the source.
Columns and labels:
Format in all cases: binding
GCN5L2 = molecular target: T1, GCN5L2 (Homo sapiens, UniProt Q92830); assay: Differential scanning fluorimetry (DSF), GCN5 (GCN5L2) Brd; conditions: compound 10 μM; for ΔTm at 10 µM: read-out: GCN5L2 ΔTm (°C) (DSF)
T1 construct: made in house
T1 sequence (Q92830 728-832 limits assumed): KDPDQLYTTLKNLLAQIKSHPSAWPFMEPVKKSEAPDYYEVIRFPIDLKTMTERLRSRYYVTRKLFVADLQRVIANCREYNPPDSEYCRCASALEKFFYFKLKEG
Procedure: (§1) Protein Expression and Purification
(§2) Human bromodomains were cloned, expressed and purified as previously described.[1]
(§3) Differential Scanning Fluorimetry (DSF)
(§4) Thermal melting points were recorded using an Mx3005p Real Time PCR Machine (Stratagene).
(§5) Subject proteins were buffered in 10 mM HEPES at pH 7.5, 500 mM NaCl and assayed in a 96-well […]
(§6) plate at a final concentration of 2 μM in 20 μL volume. Compounds were then added to a final […]
(§7) concentration of 10 μM. SPYRO Orange (Molecular Probes) was used as a fluorescent probe at a […]
(§8) dilution of 1:1000. Excitation and emission filters for the SPYRO-Orange dye were set to 465 nm and […]
(§9) 590 nm, respectively. The temperature was raised with a step of 3 °C/min from 25 °C to 96 °C and […]
(§10) fluorescence readings were taken at each interval. Data was analysed as previously described.[2]
(§11) Bromodomain affinity selectivity panel of (S)-11
(§12) Supplemental Figure 1. DSF Selectivity panel of (S)-11 against 48 human Bromodomains. […]
(§13) ┼Mean ΔTm ± SEM (number of measurements= 2). Compound concentration: 10 μM […]
(§14) (1 picture or pasted object on this page, not shown here)

PCAF Brd [1] = molecular target: T2, PCAF Brd (Homo sapiens, UniProt Q92831); assay: Differential scanning fluorimetry (DSF), PCAF Brd; conditions: compound concentration 10 μM
T2 construct: Human bromodomains were cloned, expressed and purified as previously described; made in house
T2 sequence (Q92831 723-827 limits assumed): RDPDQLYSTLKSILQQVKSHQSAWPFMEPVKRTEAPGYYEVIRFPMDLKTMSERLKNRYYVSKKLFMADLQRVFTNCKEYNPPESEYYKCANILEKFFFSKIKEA
Procedure: as §1, §2, §3, §4, §5, §6, §7, §8, §9, §10, §11, §12, §13, §14

PCAF Brd [2] = molecular target: T2, PCAF Brd; assay: Isothermal titration calorimetry (ITC), PCAF Brd
Procedure: Isothermal Titration Calorimetry (ITC)
Experiments were carried out on a Nano-ITC Standard Volume Instrument (TA Instruments). All experiments were carried out at 25 °C in 20 mM HEPES pH 7.5, 150 mM NaCl, 0.5 mM TCEP and 5% glycerol. Protein solutions were buffer exchanged by gel filtration. The titrations were conducted using an initial injection of 2 μL followed by 32 injections of 8 μL. Background dilution heat was substracted from each experiment. Thermodynamic parameters were calculated using ΔG = ΔH-T ΔS = -RTlnKB , where KD = 1/KB. ΔG, ΔH and ΔS are changes in free energy, enathalpy and entropy resepectively. Independent single site binding models were employed in data analysis.
Supplemental Figure 3. ITC trace of D-Moses and PCAF Brd […]

[3] = Supplemental Table 3, compound concentration 30 μM, protein concentration 280-320 μM, read-out: PCAF KD (μM) (ITC)
[4] = Table 1, read-out: K D [μM] (ITC) PCAF Brd
[5] = Table 2, read-out: K D (nM) (ITC) PCAF Brd

SMILES	ΔTm at 10 µM (GCN5L2) [°C]	ΔT m [°C] PCAF (DSF) (PCAF Brd [1])	Kd (PCAF Brd [2]; [3]) [µM]	Kd (PCAF Brd [2]; [4]) [µM]	GCN5L2 ΔTm (°C) (DSF) (GCN5L2)	ΔT m [°C] PCAF (DSF) (PCAF Brd [1]; listed as (S)-17) [°C]	Kd (PCAF Brd [2]; [5]) [µM]
Cc1nnc2c3ccccc3c(NCCN3CCN(C)CC3)nn12 [Compound 69]	0	0.9 °C	> 30	–	–	–	–
CCC(CNc1nn2c(C)nnc2c2ccccc12)N(C)C (stereo not shown) [Compound 16]	–	–	–	6.9 ± 1.4	–	–	–
Cc1nnc2c3ccccc3c(NC3CCCN(C)C3=O)nn12 (stereo not shown) [Compound 50]	0.1	1.1 °C	–	–	–	–	–
Cc1nnc2c3ccccc3c(NCC3CCCCN3C)nn12 (stereo not shown) [Compound 60]	1.1	2.9 °C	1.13	–	–	–	–
Cc1nnc2c3ccccc3c(NCC3CCCOC3)nn12 (stereo not shown) [Compound 99]	1.5	3.8 °C	–	–	–	–	–
COc1ccc([C@@H]([C@H](C)Nc2nn3c(C)nnc3c3ccccc23)N(C)C)cc1 [Compound 44]	6.8	10.3 °C	–	–	–	–	0.179 ± 0.048
FC(F)(F)c1nnc2c3ccccc3c(NCc3ccccc3)nn12 [Compound 85]	0.9	3.7 °C	> 30	–	–	–	–
COc1cccc(N2CC(Nc3nn4c(C)nnc4c4ccccc34)CC2=O)c1 (stereo not shown) [Compound 57]	–	0.4 °C	> 30	–	0.1	–	–
Cc1nnc2c3ccccc3c(NCCCCN(C)C)nn12 [Compound 9]	0.3	0.9 °C	–	> 30	–	–	–
CN(C)[C@H]1CCCC[C@@H]1Nc1nn2c(C(F)(F)F)nnc2c2ccccc12 [Compound 83]	0	0.8 °C	> 30	–	–	–	–
Cc1nnc2c3ccccc3c(NCC(=O)c3ccccc3)nn12 [Compound 81]	–	1.0 °C	–	–	0.3	–	–
Cc1nnc2c3ccccc3c(NC(C)c3ccccn3)nn12 (stereo not shown) [Compound 71]	–	–	2.3	–	–	–	–
Cc1nnc2c3ccccc3c(NCC3COCCN3C)nn12 (stereo not shown) [Compound 58]	0.4	2.7 °C	–	–	–	–	–
CN(C)CCNc1nn2c(C(F)(F)F)nnc2c2ccccc12 [Compound 87]	–	–	> 30	–	–	–	–
Cc1nnc2c3ccccc3c(NC(C)CN3CCC(C)CC3)nn12 (stereo not shown) [Compound 70]	0.1	0 °C	> 30	–	–	–	–
Cc1nnc2c3ccccc3c(N3CCN4CCCCC4C3)nn12 (stereo not shown) [Compound 73]	–	0.5 °C	> 30	–	0.2	–	–
Cc1nnc2c3ccccc3c(N3CCC(N(C)C)C3)nn12 (stereo not shown) [Compound 68]	–	0.8 °C	> 30	–	0.1	–	–
Cc1nnc2c3ccccc3c(NCC3CCCN3C)nn12 (stereo not shown) [Compound 97]	–	2.8 °C	18.2	–	0.9	–	–
CCC(CNc1nn2c(C(F)(F)F)nnc2c2ccccc12)N(C)C (stereo not shown) [Compound 89]	–	0.4 °C	> 30	–	0.2	–	–
Cc1nnc2c3ccccc3c(N[C@H]3CCCC[C@@H]3N(C)C)nn12 [Compound 66]	–	0.6 °C	> 30	–	0.1	–	–
Cc1nnc2c3ccccc3c(N[C@@H]3CCC[C@H]3N(C)C)nn12 [Compound 67]	0.3	0.7 °C	0.321	–	–	–	–
Cc1nnc2c3ccccc3c(N[C@@H]3CCCN(C(=O)OCc4ccccc4)C3)nn12 [Compound 65]	–	–	> 30	–	–	–	–
CCN1CCCC1CNc1nn2c(C(F)(F)F)nnc2c2ccccc12 (stereo not shown) [Compound 91]	0.1	0.1 °C	> 30	–	–	–	–
CCN(CC)CC(C)Nc1nn2c(C(F)(F)F)nnc2c2ccccc12 (stereo not shown) [Compound 90]	–	0.4 °C	> 30	–	0.1	–	–

Continued, values first:

ΔTm at 10 µM (GCN5L2) [°C]	ΔT m [°C] PCAF (DSF) (PCAF Brd [1])	Kd (PCAF Brd [2]; [3]) [µM]	Kd (PCAF Brd [2]; [4]) [µM]	GCN5L2 ΔTm (°C) (DSF) (GCN5L2)	ΔT m [°C] PCAF (DSF) (PCAF Brd [1]; listed as (S)-17) [°C]	Kd (PCAF Brd [2]; [5]) [µM]	SMILES
–	3.7 °C	4.3	–	0.7	–	–	CC(=O)O.Cc1nnc2c3ccccc3c(NCCN3CCCC3)nn12 [Compound 59]
0.2	0.3 °C	–	–	–	–	–	Cc1nnc2c3ccccc3c(N[C@@H](C)[C@H](O)c3ccccc3)nn12 [Compound 77]
0.2	0.65 °C	–	> 30	–	0.7	–	C[C@@H](CN(C)C)Nc1nn2c(C(F)(F)F)nnc2c2ccccc12 [Compound (S)‐17]
0.2	0.7 °C	> 30	–	–	–	–	CN(C)[C@H]1CCC[C@@H]1Nc1nn2c(C(F)(F)F)nnc2c2ccccc12 [Compound 84]
–	1.1 °C	> 30	–	0.5	–	–	Cc1nnc2c3ccccc3c(N[C@@H]3CCCN(Cc4ccccc4)C3)nn12 [Compound 64]
2.4	7.3 °C	0.168	–	–	–	–	Cc1nnc2c3ccccc3c(N[C@H]3CCC[C@@H]3N(C)C)nn12 [Compound 76]
–	1.7 °C	–	1	–	–	–	Cc1nnc2c3ccccc3c(NCC(c3ccccc3)N(C)C)nn12 (stereo not shown) [Compound 10]
–	–	> 30	–	–	–	–	Cc1nnc2c3ccccc3c(NC(C)c3cnccn3)nn12 (stereo not shown) [Compound 72]
0.2	0 °C	–	–	–	–	–	Cc1nnc2c3ccccc3c(Cl)nn12 [Compound 94]
0.2	0.7 °C	–	–	–	–	–	Cc1nnc2c3ccccc3c(NCCN3CCOCC3)nn12 [Compound 98]
–	0.5 °C	–	–	0	–	–	Cc1nnc2c3ccccc3c(N[C@H]3C[C@@H]4CC[C@H]3C4)nn12 [Compound 61]
0	0 °C	–	> 30	–	–	–	CCN(CC)CC(C)Nc1nn2c(C)nnc2c2ccccc12 (stereo not shown) [Compound 14]
1.1	3.3 °C	1.76	1.8 ± 0.23	–	–	–	CCC(CN(C)C)Nc1nn2c(C)nnc2c2ccccc12 (stereo not shown) [Compound 12]
0.3	0.2 °C	> 30	–	–	–	–	Cc1nnc2c3ccccc3c(N3CCN(CCN4CCCCC4)CC3)nn12 [Compound 62]
6.3	9.6 °C	–	–	–	–	0.133 ± 0.015	COC(=O)c1ccc([C@@H]([C@H](C)Nc2nn3c(C)nnc3c3ccccc23)N(C)C)cc1 [Compound 40]
0.2	0.4 °C	> 30	–	–	–	–	Cc1nnc2c3ccccc3c(N3CCCC(N(C)C)C3)nn12 (stereo not shown) [Compound 75]
–	0.4 °C	> 30	–	0.1	–	–	CCC(CN(C)C)Nc1nn2c(C(F)(F)F)nnc2c2ccccc12 (stereo not shown) [Compound 88]
2.5	5.6 °C	0.298	0.3 ± 0.039	–	–	–	Cc1nnc2c3ccccc3c(NC(C)CN(C)C)nn12 (stereo not shown) [Compound 11]
0.1	0.6 °C	> 30	–	–	–	–	Cc1nnc2c3ccccc3c(N[C@H]3CCCN(Cc4ccccc4)C3)nn12 [Compound 56]
0	0.2 °C	–	–	–	–	–	CCN1CCCCC1CNc1nn2c(C)nnc2c2ccccc12 (stereo not shown) [Compound 63]
1	4.6 °C	–	7.3 ± 1.1	–	–	–	Cc1nnc2c3ccccc3c(NCC(C)N(C)C)nn12 (stereo not shown) [Compound 15]
0	1.0 °C	–	–	–	–	–	Cc1nnc2c3ccccc3c(NC(CO)c3ccccc3)nn12 (stereo not shown) [Compound 51]
4.3	7.8 °C	–	–	–	–	0.16 ± 0.054	Cc1ccc([C@@H]([C@H](C)Nc2nn3c(C)nnc3c3ccccc23)N(C)C)cc1 (relative stereo) [Compound 41]
7.2	9.1 °C	–	–	–	–	0.163 ± 0.117	Cc1nnc2c3ccccc3c(N[C@@H](C)[C@H](c3ccc(C(F)(F)F)cc3)N(C)C)nn12 (relative stereo) [Compound 43]
1.1	0.9 °C and 0.85 °C	–	> 30	–	–	–	Cc1nnc2c3ccccc3c(NC(CC(C)C)CN(C)C)nn12 (stereo not shown) [Compound 13]
–	–	–	> 30	–	–	–	Cc1nnc2c3ccccc3c(NCCCN(C)C)nn12 [Compound 8]

From PMC5412877, “Discovery of a PCAF Bromodomain Chemical Probe” (Angewandte Chemie (International Ed. in English), 2016)
